For one data set, the system named is S. aureus. As to the kind of experiment: Antimicrobial activity. The settings on record: Staphylococcus aureus. It counts as cell-based. The procedure: (§1) Samples were tested for antimicrobial activity according to the Clinical Laboratory Standard Institution using American type of Culture Collection (ATCC) standard.
For the next data set, the system named is Mycobacterium smegmatis. As to the kind of experiment: Antimicrobial activity. It counts as cell-based. The settings on record: Mycolicibacterium smegmatis. The procedure:
as §1

A further data set concerns C. albicans. As to the kind of experiment: Antimicrobial activity. It counts as cell-based. The conditions noted are these: Candida albicans. As to the method:
as §1

For the next data set, the system named is E. coli. As to the kind of experiment: Antimicrobial activity. The class given is cell-based. The settings on record: Escherichia coli. As to the method:
as §1

In the next data set the test system is P. aeruginosa. Kind of data set: Antimicrobial activity. The settings on record: Pseudomonas aeruginosa. The class given is cell-based. As to the method:
as §1

Data set [1] concerns Mycobacterium intracellulare. As to the kind of experiment: Antimicrobial activity. It counts as cell-based, M. intracellulare. The procedure: as §1
Data set [2] is described as follows: Cytotoxicity assay, resazurin. It counts as cell-based. The settings on record: human, MRC-5 SV2 fibroblast cells. As to the method: The integrated panel of microbial screens and standard screening methodologies were adopted as previously described. All assays were performed in triplicate at the Laboratory of Microbiology, Parasitology and Hygiene at the University of Antwerp (Antwerp, Belgium). […] The selectivity of activity was assessed by simultaneous cytotoxicity evaluation on the MRC-5 fibroblast cell line. […] MRC-5 SV2 cells were cultivated in MEM, supplemented with L-glutamine (20 mM), 16.5 mM sodium hydrogen carbonate and 5% FCS. […] Cell viability was assessed fluorimetrically after 4 h of addition of resazurin. Fluorescence was measured (excitation 550 nm, emission 590 nm) and the results were expressed as % reduction in cell viability compared to control.
Background: The colour change of resazurin is a common sign of viable cells or microbes.

The next data set relates to B. subtilis. Kind of data set: Antimicrobial activity. It counts as cell-based, Bacillius subtilis. The settings on record: Bacillus subtilis. As to the method:
as §1

The test system of another data set is Mycobacterium cheleneoi. As to the kind of experiment: Antimicrobial activity. It counts as cell-based, M. cheleneoi. As to the method: as §1
In data set [3] the test system is Trypanosoma brucei Squib-427 strain. As to the kind of experiment: Antitrypanosomal activity, T. brucei trypomastigotes, resazurin. It counts as cell-based. The conditions noted are these: 72 h. The procedure: (§2) The integrated panel of microbial screens and standard screening methodologies were adopted as previously described. All assays were performed in triplicate at the Laboratory of Microbiology, Parasitology and Hygiene at the University of Antwerp (Antwerp, Belgium). Extracts were tested at five concentrations (64, 16, 4, 1 and 0.25 μg/mL) to establish a full dose-titration and determination of the IC50 (inhibitory concentration 50%). […] The selectivity of activity was assessed by simultaneous cytotoxicity evaluation on the MRC-5 fibroblast cell line.
(§3) Trypanosoma brucei Squib-427 strain (suramin-sensitive) was cultured at 37 °C and 5% CO2 in Hirumi-9 medium, supplemented with 10% fetal calf serum (FCS). About 1.5 × 10^4 trypomastigotes/well were added to each well and parasite growth was assessed after 72 h at 37 °C by adding resazurin [29]. For Chagas disease, T. cruzi Tulahuen CL2 (benznidazole-sensitive, LacZ-reporter strain) was maintained on MRC-5 cells in minimal essential medium (MEM) supplemented with 20 mM L-glutamine, 16.5 mM sodium hydrogen carbonate and 5% FCS. […] After incubation at 37 °C for 7 days, parasite growth was assessed by adding the substrate chlorophenol red α-D-galactopyranoside. The color reaction was read at 540 nm after 4 h and absorbance values were expressed as a percentage of the blank controls.

The test system of the next data set is Mycobacterium xenopi. Kind of data set: Antimicrobial activity. The class given is cell-based, M. xenopi. As to the method:
as §1

The test system of data set [4] is Chloroquine-resistant P. falciparum K 1-strain. As to the kind of experiment: Antiplasmodial activity, Malstat (pLDH) assay. The settings on record: Plasmodium falciparum; K1 strain, 72 h. It counts as cell-based. As to the method: as §2
Chloroquine-resistant P. falciparum K 1-strain was cultured in human erythrocytes O^+ at 37 °C under a low oxygen atmosphere (3% O2, 4% CO2, and 93% N2) in RPMI-1640, supplemented with 10% human serum. Infected human red blood cells (200 μL, 1% parasitaemia, 2% haematocrit) were added to each well and incubated for 72 h. After incubation, test plates were frozen at −20 °C. Parasite multiplication was measured using the Malstat assay, a colorimetric method based on the reduction of 3-acetyl pyridine adenine dinucleotide (APAD) by parasite-specific lactate-dehydrogenase (pLDH).

The next data set relates to T. cruzi Tulahuen CL2. As to the kind of experiment: Antitrypanosomal activity, T. cruzi on MRC-5 cells, LacZ reporter. The class given is cell-based, Trypanosoma cruzi. The conditions noted are these: 7 days. The procedure: as §2, §3
The test system of data set [5] is L. infantum MHOM/MA (BE)/67 amastigotes. Kind of data set: Antileishmanial activity, intracellular amastigotes in primary peritoneal mouse macrophages. It counts as cell-based, Leishmania infantum. The conditions noted are these: 5 days. The procedure:
The integrated panel of microbial screens and standard screening methodologies were adopted as previously described. All assays were performed in triplicate at the Laboratory of Microbiology, Parasitology and Hygiene at the University of Antwerp (Antwerp, Belgium). […] The selectivity of activity was assessed by simultaneous cytotoxicity evaluation on the MRC-5 fibroblast cell line. […] L. infantum MHOM/MA (BE)/67 amastigotes were collected from the spleen of an infected donor hamster and used to infect primary peritoneal mouse macrophages. To determine in vitro antileishmanial activity, 3 × 10^4 macrophages were seeded in each well of a 96-well plate. After 2 days outgrowth, 5 × 10^5 amastigotes/well, were added and incubated for 2 h at 37 °C. Pre-diluted plant extracts were subsequently added and the plates were further incubated for 5 days at 37 °C and 5% CO2. Parasite burdens (mean number of amastigotes/macrophage) were microscopically assessed on 500 cells after Giemsa staining of the […] expressed as a percentage of the blank controls without plant extract.

Drawing on PMC6270423, “Phytochemical, Antimicrobial and Antiprotozoal Evaluation of Garcinia Mangostana Pericarp and α-Mangostin, Its Major Xanthone Derivative” (Molecules, 2013), this text covers melting point, MIC and IC50 for two compounds.

pIC50: −log10 of the molar value. Where two headings read alike, the source gives them in different places.

On to `COc1cc2oc3cc(OC)c(OC)c(CC=C(C)C)c3c(=O)c2c(O)c1CC=C(C)C`, for which the melting point (usually the temperature of the solid-liquid transition) was 152 to 154 °C.

Turning to `COc1c(O)cc2oc3cc(O)c(CC=C(C)C)c(O)c3c(=O)c2c1CC=C(C)C` [α-Mangostin], the MIC (commonly the lowest concentration that inhibits growth of the organism) was 7.8 µM with S. aureus; 3.2 µg/mL with S. aureus (text); 3.7 µM in the data set on Mycobacterium smegmatis (read-out: MIC Mycobacterium smegmatis); 1.5 µg/mL in the data set with Mycobacterium smegmatis (read-out: MIC Mycobacterium species (M. smegmatis)); more than 200 µM against C. albicans; more than 200 µM in the data set on E. coli. Moreover, the MIC in the data set with P. aeruginosa was more than 200 µM; in data set [1] (read-out: MIC Mycobacterium intracellulare), 3.7 µM; in data set [1] (read-out: MIC Mycobacterium species (M. intracellulare)), 1.5 µg/mL; against B. subtilis, 3.9 µM; in the data set on B. subtilis (text), 1.6 µg/mL; in the data set on Mycobacterium cheleneoi (read-out: MIC Mycobacterium cheleneoi), 3.7 µM. In addition, the values for the MIC in the data set with Mycobacterium cheleneoi (read-out: MIC Mycobacterium species (M. cheleneoi)), in the data set on Mycobacterium xenopi (read-out: MIC Mycobacterium species (M. xenopi)) and in the data set on Mycobacterium xenopi (read-out: MIC Mycobacterium xenopi) were 1.5 µg/mL, 1.5 µg/mL and 3.7 µM, respectively. Besides, the IC50 in the data set on C. albicans (no activity at all), in the data set with E. coli (no activity at all) and with P. aeruginosa (no activity at all) was more than 200 µg/mL each time. In addition, in data set [2], the IC50 (as a rule, the point on the concentration scale where inhibition reaches its midpoint) at 72 h came out at 7.5 µM. Further, the pIC50 (as a rule, the IC50 on a negative log10 scale, so that one unit is a factor of ten) in data set [3] is 5.10; in [3] (Trypanosoma brucei) it was 5.05 to 5.10; in data set [4] it was 5.66; with T. cruzi Tulahuen CL2, 5.05; in the data set on T. cruzi Tulahuen CL2 (Trypanosoma cruzi, TULAHUEN, MRC5, 168 h) it was 5.05 to 5.10; in data set [5] it was 5.10. This compound also showed a negative-log IC50 (pIC50) in [5] (Leishmania infantum, Macrophage, 120 h) of 5.05 to 5.10.
